Read-outs that look alike come from different tables or passages of the source.
Legend:
[1] = system: DHX9 (circBRIP1 mRNA in HCT116 cells); test: DHX9 circBRIP1 Cellular Target Engagement SYBR Green Assay; type: cell-based; conditions: Homo sapiens, HCT-116, circBRIP1 qPCR, 72 hours
[2] = target: T1, Human recombinant DHX9 protein (Homo sapiens, UniProt Q08211); test: DHX9 ATPase assay (ADP-Glo biochemical assay); conditions: for DHX9 Biochemical Max Inhibition: maximum inhibition in ATPase assay, 10 μM Aurintricarboxylic acid = 100%
T1 construct: purchased Viva
T1 sequence (Q08211 whole entry): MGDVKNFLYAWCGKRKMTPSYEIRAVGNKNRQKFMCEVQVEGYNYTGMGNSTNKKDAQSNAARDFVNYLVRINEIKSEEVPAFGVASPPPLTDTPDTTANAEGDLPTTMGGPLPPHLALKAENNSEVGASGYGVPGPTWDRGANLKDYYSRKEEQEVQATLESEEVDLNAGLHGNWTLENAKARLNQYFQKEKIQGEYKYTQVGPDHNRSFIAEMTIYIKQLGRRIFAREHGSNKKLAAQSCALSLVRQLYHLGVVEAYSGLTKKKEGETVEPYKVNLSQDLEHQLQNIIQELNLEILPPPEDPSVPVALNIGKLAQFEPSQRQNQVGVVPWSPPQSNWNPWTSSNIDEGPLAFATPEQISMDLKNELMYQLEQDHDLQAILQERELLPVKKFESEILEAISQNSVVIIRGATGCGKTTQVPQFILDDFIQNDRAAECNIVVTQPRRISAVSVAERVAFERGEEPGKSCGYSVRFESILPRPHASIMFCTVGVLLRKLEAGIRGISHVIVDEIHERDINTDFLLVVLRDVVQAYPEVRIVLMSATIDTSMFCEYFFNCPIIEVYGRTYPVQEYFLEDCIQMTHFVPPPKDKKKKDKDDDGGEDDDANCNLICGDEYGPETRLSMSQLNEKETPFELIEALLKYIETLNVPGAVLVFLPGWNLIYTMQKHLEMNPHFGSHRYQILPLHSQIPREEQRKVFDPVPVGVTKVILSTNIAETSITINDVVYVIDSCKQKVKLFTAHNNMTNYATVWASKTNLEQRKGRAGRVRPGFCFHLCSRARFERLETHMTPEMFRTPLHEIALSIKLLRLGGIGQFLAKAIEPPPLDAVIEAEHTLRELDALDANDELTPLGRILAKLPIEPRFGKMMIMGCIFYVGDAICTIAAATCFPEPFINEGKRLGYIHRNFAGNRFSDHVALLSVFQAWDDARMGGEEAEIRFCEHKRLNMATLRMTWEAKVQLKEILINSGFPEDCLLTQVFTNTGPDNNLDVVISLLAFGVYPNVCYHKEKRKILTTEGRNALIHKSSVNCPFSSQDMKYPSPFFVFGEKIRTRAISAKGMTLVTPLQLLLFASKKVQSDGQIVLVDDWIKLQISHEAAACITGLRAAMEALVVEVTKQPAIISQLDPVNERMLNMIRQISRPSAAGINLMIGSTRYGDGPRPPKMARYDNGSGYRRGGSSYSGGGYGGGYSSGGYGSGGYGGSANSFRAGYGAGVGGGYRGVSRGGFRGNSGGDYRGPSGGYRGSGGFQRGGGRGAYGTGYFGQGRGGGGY

[3] = read-out: DHX9 Biochemical Inflection Point

| EC50 [1] [nM] | DHX9 Biochemical Max Inhibition [2] [%] | IC50 [2, 3] [nM] | SMILES | IC50 [2] [nM] |
| --- | --- | --- | --- | --- |
| > 30000 | 47.2 | 6510 | CS(=O)(=O)Nc1cccc(NC(=O)c2cc(-c3cccs3)ccn2)c1 [Example 44] | – |
| > 30000 | 66.5 | 45.8 | CS(=O)(=O)Nc1cccc(NC(=O)c2cc(-c3cccc(C(N)=O)c3)cs2)c1 [Example 50] | – |
| 22700 | 70.4 | 188 | CS(=O)(=O)Nc1cccc(NC(=O)c2cc(-c3ccc(F)cc3)cs2)c1 [Example 53] | – |
| 21400 | 68.2 | 148 | COc1cccc(-c2csc(C(=O)Nc3cccc(NS(C)(=O)=O)c3)c2)c1 [Example 56] | – |
| 25300 | 70.7 | 41.9 | CS(=O)(=O)Nc1cccc(NC(=O)c2cc(-c3ccccc3O)cs2)c1 [Example 57] | – |
| 3120 | 69.2 | 55.8 | CS(=O)(=O)Nc1cccc(NC(=O)c2cc(-c3cccc(N)c3)cs2)c1 [Example 58] | – |
| 10900 | 69.2 | 76.6 | Cc1ncccc1-c1csc(C(=O)Nc2cccc(NS(C)(=O)=O)c2)c1 [Example 60] | – |
| > 30000 | 60.8 | 271 | CS(=O)(=O)Nc1cccc(NC(=O)c2cc(-c3cncnc3)cs2)c1 [Example 62] | – |
| 18800 | 66.9 | 121 | CCOc1ncc(-c2csc(C(=O)Nc3cccc(NS(C)(=O)=O)c3)c2)cn1 [Example 63] | – |
| 8560 | 66.9 | 41.8 | Cc1ccc(-c2csc(C(=O)Nc3cccc(NS(C)(=O)=O)c3)c2)cn1 [Example 65] | – |
| > 30000 | 71.3 | 87.5 | CS(=O)(=O)Nc1cccc(NC(=O)c2cc(-c3cccnn3)cs2)c1 [Example 66] | – |
| 4790 | 75.6 | 16.3 | CS(=O)(=O)Nc1cccc(NC(=O)c2cc(-c3ncccc3O)cs2)c1 [Example 69] | – |
| 4370 | 71.2 | 32.2 | CS(=O)(=O)Nc1cccc(NC(=O)c2cc(-c3c(O)cccc3F)cs2)c1 [Example 70] | – |
| > 30000 | 64.4 | 494 | CC(C)(C)OC(=O)Nc1cccc(-c2csc(C(=O)Nc3cccc(NS(C)(=O)=O)c3)c2)c1 [Example 72] | – |
| 6150 | 63.7 | 109 | CS(=O)(=O)Nc1cccc(NC(=O)c2cc(-c3cccc(O)c3)cs2)c1 [Example 73] | – |
| 8280 | 70.1 | 82.1 | Cc1ccc(O)cc1-c1csc(C(=O)Nc2cccc(NS(C)(=O)=O)c2)c1 [Example 75] | – |

| EC50 [1] [nM] | DHX9 Biochemical Max Inhibition [2] [%] | IC50 [2, 3] [nM] | SMILES | IC50 [2] [nM] |
| --- | --- | --- | --- | --- |
| 2040 | 72.3 | 89.4 | CS(=O)(=O)Nc1cccc(NC(=O)c2cc(-c3ccccc3OCc3ccccc3)cs2)c1 [Example 77] | – |
| – | 64.6 | 146 | CS(=O)(=O)Nc1cccc(NC(=O)c2cc(C(=O)Nc3ccc(-c4ccncc4)cc3)cs2)c1 [Example 128] | – |
| – | 69.2 | 324 | COc1ccc(NC(=O)c2csc(C(=O)Nc3cccc(NS(C)(=O)=O)c3)c2)cc1 [Example 130] | – |
| – | 66.9 | 58 | COCc1cccc(NC(=O)c2csc(C(=O)Nc3cccc(NS(C)(=O)=O)c3)c2)c1 [Example 134] | – |
| – | 65.6 | 211 | CC(C)Oc1ccccc1NC(=O)c1csc(C(=O)Nc2cccc(NS(C)(=O)=O)c2)c1 [Example 135] | – |
| – | 72.9 | 127 | CS(=O)(=O)Nc1cccc(NC(=O)c2cc(C(=O)NC3CCc4ccccc43)cs2)c1 (centres unmarked) [Example 136] | – |
| – | 76.6 | 116 | CS(=O)(=O)Nc1cccc(NC(=O)c2cc(C(=O)Nc3ccccc3CC#N)cs2)c1 [Example 138] | – |
| – | 68.9 | 40.5 | CNC(=O)c1ccc(NC(=O)c2csc(C(=O)Nc3cccc(NS(C)(=O)=O)c3)c2)cc1 [Example 139] | – |
| – | 66.3 | 92.6 | CS(=O)(=O)Nc1cccc(NC(=O)c2cc(C(=O)NCc3nc4ccccc4[nH]3)cs2)c1 [Example 141] | – |
| – | 73.3 | 91.5 | CS(=O)(=O)Nc1cccc(NC(=O)c2cc(C(=O)Nc3ccccc3CCO)cs2)c1 [Example 143] | – |
| – | 65.9 | 146 | CS(=O)(=O)Nc1cccc(NC(=O)c2cc(C(=O)NCc3n[nH]c4ccccc34)cs2)c1 [Example 144] | – |
| – | 67.7 | 105 | CS(=O)(=O)Nc1cccc(NC(=O)c2cc(C(=O)NCc3ccc4[nH]ccc4c3)cs2)c1 [Example 145] | – |
| – | 71.2 | 38.7 | CS(=O)(=O)Nc1cccc(NC(=O)c2cc(C(=O)Nc3nc4ccccc4[nH]3)cs2)c1 [Example 146] | – |
| – | 58.2 | 5360 | CS(=O)(=O)Nc1cccc(NC(=O)c2cc(C(=O)Nc3cc(-c4ccccc4)[nH]n3)cs2)c1 [Example 148] | – |
| – | 69.8 | 50.7 | CS(=O)(=O)Nc1cccc(NC(=O)c2cc(C(=O)Nc3ccc(CCO)cc3)cs2)c1 [Example 149] | – |

Further lines, the compound ahead of its results:

| SMILES | EC50 [1] [nM] | DHX9 Biochemical Max Inhibition [2] [%] | IC50 [2, 3] [nM] | IC50 [2] [nM] |
| --- | --- | --- | --- | --- |
| CS(=O)(=O)Nc1cccc(NC(=O)c2cnn(-c3ccccc3)c2)c1 [Example 1] | > 30000 | 71.6 | 339 | – |
| CS(=O)(=O)Nc1cccc(NC(=O)c2ccn(-c3c(F)cccc3F)n2)c1 [Example 12] | > 30000 | 83.3 | 355 | – |
| Cc1cc(C)nc(-n2nc(C(=O)Nc3cccc(NS(C)(=O)=O)c3)cc2C)n1 [Example 15] | > 30000 | 70.4 | 579 | – |
| CC(=O)c1ccc(S(=O)(=O)Nc2ccc(C(=O)Nc3cccc(NS(C)(=O)=O)c3)cc2)cc1 [Example 20] | > 30000 | 72 | 664 | – |
| CS(=O)(=O)Nc1cccc(NC(=O)c2ccc(N3CCCC3)cc2)c1 [Example 31] | > 30000 | 80.3 | 864 | – |
| CS(=O)(=O)Nc1cccc(NC(=O)c2csc(-c3nnc[nH]3)n2)c1 [Example 33] | > 30000 | 65.4 | 1020 | – |
| CS(=O)(=O)Nc1cccc(NC(=O)c2cccc(-n3cccn3)c2)c1 [Example 40] | > 30000 | 72.8 | 371 | – |
| CS(=O)(=O)Nc1cccc(NC(=O)c2cnn(-c3ccccn3)c2)c1 [Example 41] | 27400 | 61.2 | 285 | – |
| Cc1c(O)cccc1-c1csc(C(=O)Nc2cccc(NS(C)(=O)=O)c2)c1 [Example 74, 4-(3-hydroxy-2-methylphenyl)-N-(3-(methylsulfonamido)phenyl)thiophene-2-carboxamide] | ≥ 30000 | 71.4 | 80.6 | – |
| CS(=O)(=O)Nc1cccc(NC(=O)c2cc(C(=O)NCc3ccc(CN4CCOCC4)cc3)cs2)c1 [Example 124] | – | 66.5 | 182 | – |
| COc1cc(Cl)cc(NC(=O)c2csc(C(=O)Nc3cccc(NS(C)(=O)=O)c3)c2)c1 [Example 125] | – | 71.7 | 64.9 | – |
| CC(C)(C)NC(=O)c1ccc(NC(=O)c2csc(C(=O)Nc3cccc(NS(C)(=O)=O)c3)c2)cc1 [Example 127] | – | 68.3 | 115 | – |
| CS(=O)(=O)Nc1cccc(NC(=O)c2cc(C(=O)Nc3cnc4ccccn34)cs2)c1 [Example 129] | – | 67.2 | 88.9 | – |
| Cn1c(=O)n(C)c2cc(NC(=O)c3csc(C(=O)Nc4cccc(NS(C)(=O)=O)c4)c3)ccc21 [Example 131] | – | 65.8 | 52.2 | – |
| CS(=O)(=O)Nc1cccc(NC(=O)c2cc(C(=O)Nc3cccc(-c4cccnc4)c3)cs2)c1 [Example 133] | – | 70.3 | 171 | – |
| CS(=O)(=O)Nc1cccc(NC(=O)c2cc(C(=O)NCCc3c[nH]c4ccccc34)cs2)c1 [Example 140] | – | 70.1 | 189 | – |
| COc1ccc(OC)c(CCNC(=O)c2csc(C(=O)Nc3cccc(NS(C)(=O)=O)c3)c2)c1 [Example 142] | – | 72.6 | 167 | – |
| Cc1nc(-c2cccc(NC(=O)c3csc(C(=O)Nc4cccc(NS(C)(=O)=O)c4)c3)c2)cs1 [Example 147] | – | 64.7 | 229 | – |
| CS(=O)(=O)Nc1cccc(NC(=O)c2cc(C(=O)NCCN3CCCCC3)cs2)c1 [Example 150] | – | 68.6 | 102 | – |
| Cc1cc(C(=O)Nc2cccc(NS(C)(=O)=O)c2)nn1Cc1ccccc1 [Example 154, 1-benzyl-N-(3-methanesulfonamidophenyl)-5-methyl-1H-pyrazole-3-carboxamide] | – | 68.4 | 3890 | – |
| CS(=O)(=O)Nc1cccc(NC(=O)c2cc(NCc3ccccc3)cs2)c1 [Example 155, 4-(benzylamino)-N-(3-(methylsulfonamido)phenyl)thiophene-2-carboxamide] | – | 72.3 | 1010 | – |
| CS(=O)(=O)Nc1cccc(NC(=O)c2cc(-c3ccccc3)cs2)n1 [Example 156, N-(6-methanesulfonamidopyridin-2-yl)-4-phenylthiophene-2-carboxamide] | – | 63.7 | – | 1920 |
| CS(=O)(=O)Nc1cccc(NC(=O)c2cc(C(=O)NCCC3CC3)cs2)c1 [Example 162] | – | 68.5 | 81.1 | – |
